# In patent US20070049593A1 (priority 2004, published 2007):
# Where a name gives a salt, the structure may show the parent alone.
# Molecular target: T1, HCV polymerase (Hepatitis C virus genotype 1b, UniProt P26663)
# T1 construct: a region encoding NS5B (J Virol 1991 March, 65(3), 1105-13, 544 amino acids after deletion of 47 amino acids on the C-terminal); 6xHis (C); made in house; host or cells: Escherichia coli
# Assay: biochemical
# Parameters: species or system HCV BK strain
# Procedure, shortened: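 Recombinant HCV BK-strain NS5B (C-terminal 47 aa deleted, His6-tagged, E. coli), 0.5 μg/ml, run with 5 μg/ml in vitro-transcribed RNA template (polyU/3′X), ATP/GTP/CTP 50 μM, UTP 2 μM plus [3H]UTP, pH 7.5, 25° C, 90 min. TCA-precipitated RNA counted by scintillation; IC50 from activity with vs without compound.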
# T1 sequence (P26663 2420-2963): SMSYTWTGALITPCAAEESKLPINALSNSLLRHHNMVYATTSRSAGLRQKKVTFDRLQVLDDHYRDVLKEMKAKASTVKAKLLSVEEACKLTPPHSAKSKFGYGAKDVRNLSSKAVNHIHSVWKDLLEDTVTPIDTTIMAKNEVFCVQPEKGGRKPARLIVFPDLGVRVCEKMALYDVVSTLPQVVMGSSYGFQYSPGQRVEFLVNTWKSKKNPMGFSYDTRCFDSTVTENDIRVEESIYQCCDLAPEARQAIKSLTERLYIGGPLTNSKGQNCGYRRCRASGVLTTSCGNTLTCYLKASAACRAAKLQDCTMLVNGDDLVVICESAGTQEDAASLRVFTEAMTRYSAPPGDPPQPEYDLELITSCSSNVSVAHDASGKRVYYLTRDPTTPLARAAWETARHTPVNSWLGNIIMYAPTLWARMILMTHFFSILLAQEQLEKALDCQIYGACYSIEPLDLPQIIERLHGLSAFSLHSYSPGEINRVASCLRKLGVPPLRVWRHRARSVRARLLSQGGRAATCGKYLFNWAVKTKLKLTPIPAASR
row,Compound,IC50 [nM]
1,"COCC[C@@H]1CCCN(CCN2CCn3c(c(C4CCCCC4)c4ccc(C(=O)O)cc43)-c3cc(F)c(F)cc32)C1 [Example 1-544, 13-cyclohexyl-2,3-difluoro-5-{2-[(S)-3-(2-methoxyethyl)piperidin-1-yl]ethyl}-6,7-dihydro-5H-benzo[5,6][1,4]diazepino[7,1-a]indole-10-carboxylic acid dihydrochloride]",< 100
2,"Cc1ccc2c(c1)N(CCN1CCCC(C(=O)N(C)C)C1)CCn1c-2c(C2CCCCC2)c2ccc(C(=O)O)cc21 (centres unmarked) [Example 1-545, 13-cyclohexyl-5-[2-(3-dimethylcarbamoylpiperidin-1-yl)ethyl]-3-methyl-6,7-dihydro-5H-benzo[5,6][1,4]diazepino[7,1-a]indole-10-carboxylic acid dihydrochloride]",< 100
3,"COCCOc1ccc2c(c1)N(CCN1CCCCC1)CCn1c-2c(C2CCCCC2)c2ccc(C(=O)O)cc21 [Example 1-546, 13-cyclohexyl-3-(2-methoxyethoxy)-5-[2-(piperidin-1-yl)ethyl]-6,7-dihydro-5H-benzo[5,6][1,4]diazepino[7,1-a]indole-10-carboxylic acid dihydrochloride]",< 100
4,"COCCO[C@@H]1CCCN(CCN2CCn3c(c(C4CCCCC4)c4ccc(C(=O)O)cc43)-c3ccc(C)cc32)C1 [Example 1-547, 13-cyclohexyl-5-{2-[(R)-3-(2-methoxyethoxy)piperidin-1-yl]ethyl}-3-methyl-6,7-dihydro-5H-benzo[5,6][1,4]diazepino[7,1-a]indole-10-carboxylic acid dihydrochloride]",< 100
5,"CN(C)CCN1CCn2c(c(C3CCCCC3)c3ccc(C(=O)O)cc32)-c2ccc(OCCOc3ccccc3)cc21 [Example 1-548, 13-cyclohexyl-5-(2-dimethylaminoethyl)-3-(2-phenoxyethoxy)-6,7-dihydro-5H-benzo[5,6][1,4]diazepino[7,1-a]indole-10-carboxylic acid dihydrochloride]",< 100
6,"O=C(O)c1ccc2c(C3CCCCC3)c3n(c2c1)CCN(CCN1CCCCC1)c1ncccc1-3 [Example 1-549, 12-cyclohexyl-5-[2-(piperidin-1-yl)ethyl]-6,7-dihydro-5H-4,5,7a-triazadibenzo[a,e]azulene-9-carboxylic acid dihydrochloride]",< 100
7,"O=C(O)c1ccc2c(C3CCCCC3)c3n(c2c1)CCN(CCN1CCCOCC1)c1cc(F)c(F)cc1-3 [Example 1-550, 13-cyclohexyl-2,3-difluoro-5-[2-(1,4-oxazepan-4-yl)ethyl]-6,7-dihydro-5H-benzo[5,6][1,4]diazepino[7,1-a]indole-10-carboxylic acid dihydrochloride]",< 100
8,"COCC1CCCCN(CCN2CCn3c(c(C4CCCCC4)c4ccc(C(=O)O)cc43)-c3ccc(C)cc32)C1 (centres unmarked) [Example 1-551, 13-cyclohexyl-5-[2-(3-methoxymethylazepan-1-yl)ethyl]-3-methyl-6,7-dihydro-5H-benzo[5,6][1,4]diazepino[7,1-a]indole-10-carboxylic acid dihydrochloride]",< 100
9,"CN1CCn2c(c(C3CCCCC3)c3ccc(C(=O)O)cc32)-c2cccc(OCCN3CCCCC3)c21 [Example 1-552, 13-cyclohexyl-5-methyl-4-[2-(piperidin-1-yl)ethoxy]-6,7-dihydro-5H-benzo[5,6][1,4]diazepino[7,1-a]indole-10-carboxylic acid dihydrochloride]",< 100
10,"CC(=O)N(C)CC[C@@H]1CCCN(CCN2CCn3c(c(C4CCCCC4)c4ccc(C(=O)O)cc43)-c3ccc(C)cc32)C1 [Example 1-553, 5-(2-{(S)-3-[2-(N-acetyl-N-methylamino)ethyl]piperidin-1-yl}ethyl)-13-cyclohexyl-3-methyl-6,7-dihydro-5H-benzo[5,6][1,4]diazepino[7,1-a]indole-10-carboxylic acid dihydrochloride]",< 100
11,"Cc1ccc2c(c1)N(CCN1CCCCC1)CCn1c-2c(C2CCCCC2)c2ccc(C(=O)O)c(C)c21 [Example 1-554, 13-cyclohexyl-3,9-dimethyl-5-[2-(piperidin-1-yl)ethyl]-6,7-dihydro-5H-benzo[5,6][1,4]diazepino[7,1-a]indole-10-carboxylic acid dihydrochloride]",< 100
12,"Cc1ccc2c(c1)N(CCN1CCC[C@@H](CCN(C)C)C1)CCn1c-2c(C2CCCCC2)c2ccc(C(=O)O)cc21 [Example 1-555, 13-cyclohexyl-5-{2-[(S)-3-(2-dimethylaminoethyl)piperidin-1-yl]ethyl}-3-methyl-6,7-dihydro-5H-benzo[5,6][1,4]diazepino[7,1-a]indole-10-carboxylic acid dihydrochloride]",< 100
13,"Cc1ccc2c(c1)N(CCN1CCC[C@@H](CC(=O)O)C1)CCn1c-2c(C2CCCCC2)c2ccc(C(=O)O)cc21 [Example 1-556, 5-[2-((S)-3-carboxymethylpiperidin-1-yl)ethyl]-13-cyclohexyl-3-methyl-6,7-dihydro-5H-benzo[5,6][1,4]diazepino[7,1-a]indole-10-carboxylic acid dihydrochloride]",< 100
14,"Cc1ccc2c(c1)N(CCN1CCC[C@@H](CCN(C)C(=O)OC(C)(C)C)C1)CCn1c-2c(C2CCCCC2)c2ccc(C(=O)O)cc21 [Example 1-557, 5-(2-{(S)-3-[2-(N-tert-butoxycarbonyl-N-methylamino)ethyl]piperidin-1-yl)ethyl)-13-cyclohexyl-3-methyl-6,7-dihydro-5H-benzo[5,6][1,4]diazepino[7,1-a]indole-10-carboxylic acid monohydrochloride]",< 100
15,"Cc1ccc2c(c1)N(C1CCN(C(=O)OCc3ccccc3)CC1)CCn1c-2c(C2CCCCC2)c2ccc(C(=O)O)cc21 [Example 1-558, 5-(1-benzyloxycarbonylpiperidin-4-yl)-13-cyclohexyl-3-methyl-6,7-dihydro-5H-benzo[5,6][1,4]diazepino[7,1-a]indole-10-carboxylic acid]",100 to 1000
16,"Cc1ccc2c(c1)N(CCN1CCC[C@@H](CCN(C)C(=O)N(C)C)C1)CCn1c-2c(C2CCCCC2)c2ccc(C(=O)O)cc21 [Example 1-559, 13-cyclohexyl-3-methyl-5-(2-{(S)-3-[2-(trimethylureido)ethyl]piperidin-1-yl}ethyl)-6,7-dihydro-5H-benzo[5,6][1,4]diazepino[7,1-a]indole-10-carboxylic acid dihydrochloride]",< 100
17,"CN(C)CCN1CCn2c(c(C3CCCCC3)c3ccc(C(=O)O)cc32)-c2ccc(OCc3ccc(Cl)s3)cc21 [Example 1-560, 3-(5-chlorothiophen-2-ylmethoxy)-13-cyclohexyl-5-(2-dimethylaminoethyl)-6,7-dihydro-5H-benzo[5,6][1,4]diazepino[7,1-a]indole-10-carboxylic acid dihydrochloride]",< 100
18,"Cc1ccc2c(c1)N(CCN1CCSCC1)CCn1c-2c(C2CCCCC2)c2ccc(C(=O)O)cc21 [Example 1-561, 13-cyclohexyl-3-methyl-5-[2-(thiomorpholin-4-yl)ethyl]-6,7-dihydro-5H-benzo[5,6][1,4]diazepino[7,1-a]indole-10-carboxylic acid dihydrochloride]",< 100
19,"Cc1ccc2c(c1)N(C1CCNCC1)CCn1c-2c(C2CCCCC2)c2ccc(C(=O)O)cc21 [Example 1-562, 13-cyclohexyl-3-methyl-5-(piperidin-4-yl)-6,7-dihydro-5H-benzo[5,6][1,4]diazepino[7,1-a]indole-10-carboxylic acid dihydrochloride]",< 100
20,"CC(=O)N1CCC(N2CCn3c(c(C4CCCCC4)c4ccc(C(=O)O)cc43)-c3ccc(C)cc32)CC1 [Example 1-563, 5-(1-acetylpiperidin-4-yl)-13-cyclohexyl-3-methyl-6,7-dihydro-5H-benzo[5,6][1,4]diazepino[7,1-a]indole-10-carboxylic acid]",< 100
21,"Cc1ccc2c(c1)N(C1CCN(C)CC1)CCn1c-2c(C2CCCCC2)c2ccc(C(=O)O)cc21 [Example 1-564, 13-cyclohexyl-3-methyl-5-(1-methylpiperidin-4-yl)-6,7-dihydro-5H-benzo[5,6][1,4]diazepino[7,1-a]indole-10-carboxylic acid dihydrochloride]",< 100
22,"CN(C)CCN1CCn2c(c(C3CCCCC3)c3ccc(C(=O)O)cc32)-c2ccc(OCc3ccncc3)cc21 [Example 1-565, 13-cyclohexyl-5-(2-dimethylaminoethyl)-3-(pyridin-4-ylmethoxy)-6,7-dihydro-5H-benzo[5,6][1,4]diazepino[7,1-a]indole-10-carboxylic acid trihydrochloride]",< 100
23,"Cc1ccc2c(c1)N(CCN1CCC[C@@H](CCN3CCCC3=O)C1)CCn1c-2c(C2CCCCC2)c2ccc(C(=O)O)cc21 [Example 1-566, 13-cyclohexyl-3-methyl-5-(2-{(S)-3-[2-(2-oxopyrrolidin-1-yl)ethyl]piperidin-1-yl]ethyl}-6,7-dihydro-5H-benzo[5,6][1,4]diazepino[7,1-a]indole-10-carboxylic acid dihydrochloride]",< 100
24,"Cc1ccc2c(c1)N(C)C(C)Cn1c-2c(C2CCCCC2)c2ccc(C(=O)O)cc21 (centres unmarked) [Example 1-567, 13-cyclohexyl-3,5,6-trimethyl-6,7-dihydro-5H-benzo[5,6][1,4]diazepino[7,1-a]indole-10-carboxylic acid]",< 100
25,"COc1ccc2c(c1)N(CCN1CCSCC1)CCn1c-2c(C2CCCCC2)c2ccc(C(=O)O)cc21 [Example 1-568, 13-cyclohexyl-3-methoxy-5-[2-(thiomorpholin-4-yl)ethyl]-6,7-dihydro-5H-benzo[5,6][1,4]diazepino[7,1-a]indole-10-carboxylic acid dihydrochloride]",< 100
26,"Cc1ccc2c(c1)N(C)CCn1c-2c(C2CCCCC2)c2ccc(C(=O)O)c(C)c21 [Example 1-569, 13-cyclohexyl-3,5,9-trimethyl-6,7-dihydro-5H-benzo[5,6][1,4]diazepino[7,1-a]indole-10-carboxylic acid]",100 to 1000
